In patent publication US20140137294A1, “GLUCOSINOLATE TRANSPORTER PROTEIN AND USES THEREOF” (UNIVERSITY OF COPENHAGEN, priority 2010, published 2014):
Residue numbers refer to the chain shown, from its start. In names and notes the source's numbering stands. Where a SMILES comes first, the peptide text is derived from it.

T1: AtGTR2 (Arabidopsis thaliana, UniProt Q9LV10)
T1 construct: expressed in transfected cells; host or cells: Xenopus oocytes injected with in vitro transcribed cRNA (vector pNB1u)
T1 sequence (Q9LV10 1-616): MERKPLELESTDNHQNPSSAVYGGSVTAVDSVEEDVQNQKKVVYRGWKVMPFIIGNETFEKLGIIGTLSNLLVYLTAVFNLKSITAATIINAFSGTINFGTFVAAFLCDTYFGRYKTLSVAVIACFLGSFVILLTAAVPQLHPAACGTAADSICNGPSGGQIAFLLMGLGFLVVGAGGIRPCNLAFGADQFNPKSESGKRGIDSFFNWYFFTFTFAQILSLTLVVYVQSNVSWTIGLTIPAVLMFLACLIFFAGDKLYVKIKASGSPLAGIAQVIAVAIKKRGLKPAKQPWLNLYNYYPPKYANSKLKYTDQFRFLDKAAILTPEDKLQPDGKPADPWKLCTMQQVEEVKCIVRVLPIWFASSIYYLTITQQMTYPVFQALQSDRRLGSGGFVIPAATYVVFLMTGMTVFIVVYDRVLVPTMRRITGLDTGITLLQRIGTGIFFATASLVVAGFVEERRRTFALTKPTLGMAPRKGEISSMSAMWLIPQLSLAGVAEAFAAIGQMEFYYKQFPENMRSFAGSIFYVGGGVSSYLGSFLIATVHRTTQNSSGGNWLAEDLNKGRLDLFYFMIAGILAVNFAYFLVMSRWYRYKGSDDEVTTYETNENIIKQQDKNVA

T2: AtGTR1 (Arabidopsis thaliana, UniProt Q944G5)
T2 construct: A library of Arabidopsis transporters available as full length cDNAs from the RIKEN bioresource center; expressed in transfected cells; host or cells: Xenopus oocytes injected with in vitro transcribed cRNA
T2 sequence (Q944G5 31-636 limits assumed): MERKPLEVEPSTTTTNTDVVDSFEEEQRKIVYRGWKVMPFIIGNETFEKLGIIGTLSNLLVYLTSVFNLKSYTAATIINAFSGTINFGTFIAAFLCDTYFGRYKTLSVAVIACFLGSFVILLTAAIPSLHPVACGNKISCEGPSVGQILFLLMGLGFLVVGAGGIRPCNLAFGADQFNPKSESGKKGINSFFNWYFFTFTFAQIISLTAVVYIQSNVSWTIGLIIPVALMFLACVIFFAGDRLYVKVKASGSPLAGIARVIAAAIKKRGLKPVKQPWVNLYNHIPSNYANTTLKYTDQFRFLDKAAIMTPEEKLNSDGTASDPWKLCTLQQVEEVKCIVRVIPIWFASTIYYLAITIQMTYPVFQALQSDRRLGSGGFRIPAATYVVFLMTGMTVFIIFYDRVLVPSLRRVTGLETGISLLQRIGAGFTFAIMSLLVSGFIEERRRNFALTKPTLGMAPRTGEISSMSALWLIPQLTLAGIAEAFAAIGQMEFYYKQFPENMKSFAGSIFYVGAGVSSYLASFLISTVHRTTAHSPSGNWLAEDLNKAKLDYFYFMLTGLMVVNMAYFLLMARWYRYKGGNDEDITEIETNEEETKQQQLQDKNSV

B1: GTR1 S22A: GTR1 of SEQ ID NO: 2 with S at position 22 for A, mimicking dephosphorylation (protein, listed as Arabidopsis thaliana)
chain: T2 sequence (Q944G5 31-636 limits assumed) with S22A
B2: GTR1 T105A: GTR1 of SEQ ID NO: 2 with T at position 105 for A (protein, listed as Arabidopsis thaliana)
chain: T2 sequence (Q944G5 31-636 limits assumed) with T105A
B3: GTR1 T105D: GTR1 of SEQ ID NO: 2 with T at position 105 for D (protein, listed as Arabidopsis thaliana)
chain: T2 sequence (Q944G5 31-636 limits assumed) with T105D
B4: GTR1 S22D: GTR1 of SEQ ID NO: 2 with S at position 22 for D, mimicking phosphorylation (protein, listed as Arabidopsis thaliana)
chain: T2 sequence (Q944G5 31-636 limits assumed) with S22D
B5: GTR2 T58A: GTR2 of SEQ ID No: 4 with T at position 58 for A (protein, listed as Arabidopsis thaliana)
chain: T1 sequence (Q9LV10 1-616) with T58A
B6: GTR2 T58D: GTR2 of SEQ ID No: 4 with T at position 58 for D (protein, listed as Arabidopsis thaliana)
chain: T1 sequence (Q9LV10 1-616) with T58D
B7: GTR2 T117D: GTR2 of SEQ ID No: 4 with T at position 117 for D (protein, listed as Arabidopsis thaliana)
chain: T1 sequence (Q9LV10 1-616) with T117D
B8: GTR2 T117A: GTR2 of SEQ ID No: 4 with T at position 117 for A (protein, listed as Arabidopsis thaliana)
chain: T1 sequence (Q9LV10 1-616) with T117A

Legend:
Type in all cases: cell-based
[1] = molecular target: T1, AtGTR2; test: Glucosinolate uptake by AtGTR2 expressing oocytes, LC-MS analysis of oocyte extracts; details: data not shown
[2] = molecular target: T2, AtGTR1; test: Substrate-induced currents in voltage-clamped Xenopus oocytes expressing AtGTR1; details: for currents on perfusion: 133 μM, pH 5, AtGTR1
[3] = test system: Xenopus oocytes; test: 4-MTB import by phosphorylation/dephosphorylation mimicking GTR1 and GTR2 constructs in oocytes (LC-MS); details: 100 μM 4-MTB, Kulori pH 5, one hour

Molecule | currents on perfusion [2] | 4-MTB transport activity [3] | also measured
C[S+]([O-])CCCC/C(=N/OS(=O)(=O)O)S[C@@H]1O[C@H](CO)[C@@H](O)[C@H](O)[C@H]1O (stereo partly shown) | – | – | uptake by AtGTR2 measured by LC-MS analysis of oocyte extracts [1]: took up; inward current ([2]; 100 μM substrate, pH 5, voltage clamped at −50 mV, AtGTR1): ~10 nA
NCC(=O)NCC(=O)NCC(=O)O [gly-gly-gly] (H-Gly-Gly-Gly-OH) | did not result in any detectable currents | – | –
CSCC[C@H](N)C(=O)N[C@@H](C)C(=O)N[C@@H](CO)C(=O)O [met-ala-ser] (H-Met-Ala-Ser-OH) | did not result in any detectable currents | – | –
C[C@H](N)C(=O)N[C@@H](Cc1cnc[nH]1)C(=O)O [ala-his] (H-Ala-His-OH) | did not result in any detectable currents | – | –
CC(NC(=O)C(N)CC(=O)O)C(=O)O (stereo not shown) [asp-ala] | did not result in any detectable currents | – | –
CC(C)C[C@H](NC(=O)CN)C(=O)O [gly-leu] | did not result in any detectable currents | – | –
O=S(=O)(O)O/N=C(\Cc1ccc(O)cc1)S[C@@H]1O[C@H](CO)[C@@H](O)[C@H](O)[C@H]1O [pOHBG, p-hydroxybenzyl-GSL] | – | – | uptake by AtGTR2 measured by LC-MS analysis of oocyte extracts [1]: took up
B1 | – | turns of f transport completely | –
B2 | – | block the transport activity | –
B3 | – | block the transport activity | –
B4 | – | keeps the import intact | –
B5 | – | keeps the transport activity intact | –
B6 | – | inactivates the transport | –
B7 | – | block the transport activity | –
B8 | – | block the transport activity | –
